Reference: US20250332173A1, “COMPOUNDS AND METHODS FOR MODULATING NUCLEIC ACID SPLICING” (REMIX THERAPEUTICS INC., priority 2021, published 2025)
Where two headings read alike, the source gives them in different places.

Columns and labels:
Assay type in all cases: cell-based, human
MYB mRNA = experiment: RT-qPCR splicing assay, MYB canonical junction (CJ) and alternative junction (AJ) mRNA; details: Homo sapiens; for AC50: increase in MYB alternative junction (AJ) mRNA, read-out: MYB AJ AC50
Method in brief: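 Splicing switches were read by TaqMan RT-qPCR on lysates, quantifying exon-exon junctions of the canonical and alternative-exon isoforms. Lysates came from K562 (GAPDH/GUSB reference) or A673 (PPIA reference) cells exposed 24 h to compound in 11 threefold steps from 10 uM, with DMSO ≤0.25%.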

Target C [1] = experiment: HiBiT protein abundance assay, Target C (Promega Nano-Glo HiBiT Lytic Detection System, knock-in K562 cell line); details: Homo sapiens, K562, 24 h, HiBiT K562 cell line, 24 hours, top dose 10 μM; read-out: Effect on protein abundance, Target C (IC50 category)
Method in brief: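 Protein abundance was read by Nano-Glo HiBiT lytic luminescence after 24 h compound exposure (10-point, threefold series from 10 μM final) of HiBiT knock-in K562 cells. Parental K562 served as baseline; the 50%-abundance concentration was interpolated from a four-parameter logistic fit.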

SMN2 mRNA = experiment: RT-qPCR splicing assay, SMN2 canonical junction (CJ) mRNA; details: Homo sapiens
Method in brief: (§1)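 Exposure: 24 h, 37 °C, 11-point 3-fold dilutions from 10 uM final, DMSO at or below 0.25%, in A673 or K562 cells. Detection: cell-lysate RT-qPCR of canonical junction mRNA relative to GAPDH, GUSB or PPIA.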

Target C [2] = experiment: RT-qPCR splicing assay panel, Target C canonical junction (CJ) mRNA; details: Homo sapiens
Method in brief: as §1

[3] = canonical junction qPCR panel, Table 5, read-out: MYB (decrease in CJ mRNA levels, IC50)
[4] = decrease in MYB canonical junction (CJ) mRNA, RT-qPCR, read-out: MYB CJ IC50
[5] = canonical junction qPCR panel, Table 5, read-out: SMN2 (decrease in CJ mRNA levels, IC50)
[6] = canonical junction qPCR panel, Table 5, read-out: Target C (decrease in CJ mRNA levels, IC50)
[7] = Table 5 panel, canonical junction qPCR, compound concentration having 50% response in CJ decrease, read-out: MYB IC50 (decrease in CJ mRNA levels)
[8] = Table 5 panel, canonical junction qPCR, compound concentration having 50% response in CJ decrease, read-out: SMN2 IC50 (decrease in CJ mRNA levels)
[9] = Table 5 panel, canonical junction qPCR, compound concentration having 50% response in CJ decrease, read-out: Target C IC50 (decrease in CJ mRNA levels)

SMILES	IC50 (MYB mRNA; [3])	IC50 (MYB mRNA; [4])	AC50 (MYB mRNA; RT-qPCR)	IC50 (Target C [1])	IC50 (SMN2 mRNA; [5])	IC50 (Target C [2]; [6])	IC50 (MYB mRNA; [7])	IC50 (SMN2 mRNA; [8])	IC50 (Target C [2]; [9])
Cc1c(O)c(-c2ncc3c(=O)n(C4CNC4)ccc3n2)cc2cn(C)nc12 [Compound 1305, 6-(azetidin-3-yl)-2-(6-hydroxy-2,7-dimethyl-indazol-5-yl)pyrido[4,3-d]pyrimidin-5-one]	1 to 10 µM	1 to 10 µM	1 to 10 µM	> 10 µM	< 0.1 µM	> 10 µM	–	–	–
Cc1cn2cc(-c3ccc4c(=O)n(C5CCNC5)ccc4n3)c(O)c(C)c2n1 (stereo not drawn) [Compound 1302]	> 10 µM	> 10 µM	> 10 µM	> 10 µM	1 to 10 µM	> 10 µM	–	–	–
Cc1c(O)c(-c2ncc3c(=O)n([C@@H]4CC5CC4CN5)ccc3n2)cc2cn(C)nc12 (stereo in doubt) [Compound 1443, 6-[(1R,4R,5R)-2-azabicyclo[2.2.1]heptan-5-yl]-2-(6-hydroxy-2,7-dimethyl-indazol-5-yl)pyrido[4,3-d]pyrimidin-5-one]	0.1 to 1 µM	0.1 to 1 µM	0.1 to 1 µM	1 to 10 µM	< 0.1 µM	1 to 10 µM	–	–	–
Cc1c(O)c(-c2ncc3c(=O)n(C4C[C@H](C)N[C@@H](C)C4)ccc3n2)cc2cn(C)nc12 (stereo partly drawn) [Compound 1455, 6-[(2S,6S)-2,6-dimethyl-4-piperidyl]-2-(6-hydroxy-2,7-dimethyl-indazol-5-yl)pyrido[4,3-d]pyrimidin-5-one]	< 0.1 µM	< 0.1 µM	< 0.1 µM	0.1 to 1 µM	< 0.1 µM	1 to 10 µM	–	–	–
Cc1cn2cc(-c3ccc4c(=O)n(C5CCNCC5)ccc4n3)nc(C)c2n1 [Compound 1238, 2-(2,8-dimethylimidazo[1,2-a]pyrazin-6-yl)-6-(piperidin-4-yl)-1,6-naphthyridin-5(6H)-one]	> 10 µM	1 to 10 µM	> 10 µM	> 10 µM	1 to 10 µM	> 10 µM	–	–	–
Cc1cn2cc(-c3ncc4c(=O)n([C@@H]5CCNC5)ccc4n3)cc(F)c2n1 [Compound 1228]	–	1 to 10 µM	0.1 to 1 µM	1 to 10 µM	–	–	0.1 to 1 µM	< 0.1 µM	> 10 µM
Cc1cn2cc(-c3ccc4c(=O)n(C5CCNC5)ccc4n3)cc(F)c2n1 (stereo not drawn) [Compound 1299]	0.1 to 1 µM	1 to 10 µM	0.1 to 1 µM	> 10 µM	0.1 to 1 µM	> 10 µM	–	–	–
Cc1cn2cc(-c3cc4ccn(C5CCNC5)c(=O)c4cn3)cc(C#N)c2n1 (stereo not drawn) [Compound 1214]	–	1 to 10 µM	1 to 10 µM	> 10 µM	–	–	1 to 10 µM	0.1 to 1 µM	> 10 µM
Cn1cc2cc(-c3ncc4c(=O)n(C5CCNCC5)ccc4n3)cc(F)c2n1 [Compound 1212, 2-(7-fluoro-2-methyl-2H-indazol-5-yl)-6-(piperidin-4-yl)pyrido[4,3-d]pyrimidin-5(6H)-one]	–	0.1 to 1 µM	< 0.1 µM	0.1 to 1 µM	–	–	< 0.1 µM	< 0.1 µM	0.1 to 1 µM
Cc1cn2cc(-c3ncc4c(=O)n(C5CCNC5)ccc4n3)cc(C#N)c2n1 (stereo not drawn) [Compound 1221]	–	0.1 to 1 µM	0.1 to 1 µM	0.1 to 1 µM	–	–	0.1 to 1 µM	0.1 to 1 µM	0.1 to 1 µM
Cc1c(O)c(-c2ncc3c(=O)n(C4CCNC4)ccc3n2)cc2cn(C)nc12 (stereo not drawn) [Compound 1222]	–	0.1 to 1 µM	0.1 to 1 µM	> 10 µM	–	–	0.1 to 1 µM	< 0.1 µM	> 10 µM
Cc1cn2nc(-c3ccc4c(=O)n([C@H]5CCNC5)ccc4n3)cc(C)c2n1 [Compound 1437, 2-(2,8-dimethylimidazo[1,2-b]pyridazin-6-yl)-6-[(3S)-pyrrolidin-3-yl]-1,6-aphthyridin-5-one]	0.1 to 1 µM	0.1 to 1 µM	0.1 to 1 µM	1 to 10 µM	< 0.1 µM	1 to 10 µM	–	–	–
Cn1cc2cc(-c3ccc4c(=O)n(C5CCNCC5)cnc4c3)ccc2n1 [Compound 182]	–	0.1 to 1 µM	0.1 to 1 µM	1 to 10 µM	–	–	0.1 to 1 µM	< 0.1 µM	1 to 10 µM
